This passage reports MLD and BC results from ChEMBL document CHEMBL3046820, “1,6-Bis[1-(2-chloro-5-thiazolylmethyl)-2-nitroiminoimidazolidin-3-yl]hexane and 1,3,5-tris[1-(6-chloronicotinyl)-2-nitroiminoimidazolidin-3-ylmethyl]benzeneSynthesis and insecticidal and neuroblocking activities in American cockroaches, Periplaneta americana” (2006).

Structures are written as SMILES.

Holding throughout (type): functional
Experiment [1] relates to Periplaneta americana. The experiment in a line: Insecticidal activity against adult male Periplaneta americana (American cockroach) dosed through injection into abdomen assessed as mortality measured 24 hr post dose.
The subject of experiment [2] is Periplaneta americana. The experiment can be described thus: Insecticidal activity against adult male Periplaneta americana (American cockroach) dosed through injection into abdomen assessed as mortality measured 24 hr post dose pre-treated with 50 ug metabolic inhibitor PB and 50 ug NIA 1 hr before compound injection.
Experiment [3] deals with Abdominal central nerve cord. The experiment can be described thus: Neuroblocking activity in adult male Periplaneta americana (American cockroach) abdominal central nerve cords containing fifth and sixth ganglia assessed as neuroblocking concentration to supress frequncy below 10 counts/30 sec measured at 22 to 25 degC.

On to `O=[N+]([O-])/N=C1/N(CCCCCCN2CCN(Cc3cnc(Cl)s3)/C2=N/[N+](=O)[O-])CCN1Cc1cnc(Cl)s1`, for which the MLD with Periplaneta americana [1] is reported as 8.9 nmol; in the experiment with Periplaneta americana [2], 1.1 nmol.

Take `O=[N+]([O-])/N=C(/NCCCCCCN/C(=N\[N+](=O)[O-])NCc1ccc(Cl)nc1)NCc1ccc(Cl)nc1`: the MLD is over 129 nmol with Periplaneta americana [1] and 25.7 nmol in the experiment on Periplaneta americana [2]. The BC in experiment [3] is 26.3 µM.

As to `O=[N+]([O-])/N=C(/NCCCCCCN/C(=N\[N+](=O)[O-])NCc1cnc(Cl)s1)NCc1cnc(Cl)s1`, the MLD in the experiment with Periplaneta americana [1] is recorded as over 134 nmol; in the experiment with Periplaneta americana [2], 85.1 nmol. Also, in experiment [3], the BC amounted to 14.8 µM.

Take `O=[N+]([O-])/N=C1\N(Cc2ccc(Cl)nc2)CCN1Cc1cccc(CN2CCN(Cc3ccc(Cl)nc3)/C2=N/[N+](=O)[O-])c1CN1CCN(Cc2ccc(Cl)nc2)/C1=N\[N+](=O)[O-]`: the values for the MLD with Periplaneta americana [1] and in the experiment on Periplaneta americana [2] were 34 nmol and 3.4 nmol, respectively. The BC in experiment [3] stood at 100 µM.

Regarding `O=[N+]([O-])/N=C1\N(Cc2ccc(Cl)nc2)CCN1Cc1cccc(CN2CCN(Cc3ccc(Cl)nc3)/C2=N/[N+](=O)[O-])c1`, the MLD in the experiment with Periplaneta americana [1] is on record as 20 nmol; in the experiment on Periplaneta americana [2], 1 nmol.

For the molecule `O=[N+]([O-])/N=C1/N(CCCCCCN2CCN(Cc3ccc(Cl)nc3)/C2=N/[N+](=O)[O-])CCN1Cc1ccc(Cl)nc1` [Hexamethylene 1,6-bis-imadacloprid], the MLD is on record as 2.2 nmol with Periplaneta americana [1] and 0.29 nmol with Periplaneta americana [2]. For the same molecule, in experiment [3], the BC was found to be 3.7 µM.

As to `O=[N+]([O-])/N=C1\NCCN1Cc1ccc(Cl)nc1` [IMIDACLOPRID], the MLD in the experiment on Periplaneta americana [1] came out at 1.1 nmol; in the experiment with Periplaneta americana [2] it was 0.071 nmol. Besides, in experiment [3], the BC came out at 2.3 µM.
